pIC50: −log10 of the molar value. Read-outs that look alike come from different tables or passages of the source.
What was measured:
c-Abl kinase = c-Abl kinase (Abelson murine leukemia virus, UniProt P00521); assay: Inhibition of c-Abl kinase activity (cell-free, Abl peptide substrate, 33P Flashplate); type: biochemical; details: IC50 for the c-Abl kinase activity
[1] = tested on: human coronary artery smooth muscle cells (HCASMC), PDGF-BB induced; assay: Anti-cell proliferation in normal cells in the presence of PDGF stimulation (14C-thymidine incorporation); type: cell-based; details: read-out: IC50 on cell proliferation, HCASMC (PDGF-BB)
Experimental: The effect of compounds of the invention on cell proliferation in normal human primary cells, in particular, cryopreserved human coronary artery smooth muscle cells (HCASMC), in the presence of PDGF stimulation was tested based on incorporation of ^14C-thymidine into DNA of cells.
The following materials were purchased from their respective sources: Recombinant human PDGF beta homodimer, rhPDGF-BB (herein after referred as “PDGF-BB”) purchased from R&D System (Minneapolis, Minn., Cat. No 220-BB); Cryopreserved human coronary artery smooth muscle cells (HCASMC), tissue culture medium for HCASMC, and smooth muscle growth supplement (SMGS) purchased from Cascade Biologics (Portland, Oreg., HCASMC Cat. No: C-017-5C; Medium 231 Cat. No: M-231-500; and SMGS Cat. No: S-007-25); 96-well CytoStar tissue culture treated scintillating microplates purchased from Amersham (Piscataway, N.J., Cat. No: RPNQ0160); Methyl ^14C-thymidine at 56 mCi/mmol (250 μCi/2.5 mL) purchased from NEN (Cat. No.: NEC568); DMSO from Sigma (St. Louis, Mo., Cat. No: D-5879); Sterile reagent reservoirs from Costar (VWR International, Inc., West Chester, Pa., Cat. No: 4870); Dulbecco's PBS from Gibco (Cat. No: 14190-136); Backing tape white plate cover for bottom of CytoStar plate from Packard (Cat. No: 6005199)
HCASMC were seeded at approx. 4000 cells/well in a volume of 100 μl of complete Medium 231 with SMGS. Cells were grown for 48 hrs until they reach 80% confluence. They were then quiesced in SMGS-free Medium 231 for 24 hrs. Cell media were replenished with SMGS-free Medium 231 containing PDGF-BB at 50 ng/mL in a total volume of 100 μl/well; and 1 μl of test compounds in serially diluted concentrations in 100% DMSO was added to each well. For the maximum growth control wells, only 1 μl of 100% DMSO was added; for minimum growth (blank) wells, 1 μl of 10 mM cycloheximide was added to each well. After 24 hours incubation, 20 μl of ^14C-thymidine mix was added to each well and the ^14C-thymidine mix was made according the following regimen:
Cells were incubated for an additional 24 hrs in media containing test compounds, PDGF-BB and ^14C-thymidine. Then, the reaction mixture was discarded and the plate was washed 3 times each with 200 μl PBS. Subsequently, each well on the plate was filled with 200 μl of PBS. The top of the plate was sealed with transparent plate sealer and white plate backing sealers were applied to the bottom of plates. The retained ^14C inside each well was measured using a Packard TopCount.
The amount of ^14C retained in a well correlates to the proliferation of cells inside the well. […] In order to test the potency of inhibition of the present compound, IC50 of an individual compound on the inhibition of PDGF-BB induced HCASMC proliferation was measured using the above procedure. As used herein, said IC50 refers to the concentration of the test compound at which the amount of PDGF-BB induced HCASMC proliferation is reduced by one-half as compared to the maximum growth control wells without the compound.

[2] = PDGF-BB induced HCASMC proliferation

Sequence of c-Abl kinase (P00521 115-385): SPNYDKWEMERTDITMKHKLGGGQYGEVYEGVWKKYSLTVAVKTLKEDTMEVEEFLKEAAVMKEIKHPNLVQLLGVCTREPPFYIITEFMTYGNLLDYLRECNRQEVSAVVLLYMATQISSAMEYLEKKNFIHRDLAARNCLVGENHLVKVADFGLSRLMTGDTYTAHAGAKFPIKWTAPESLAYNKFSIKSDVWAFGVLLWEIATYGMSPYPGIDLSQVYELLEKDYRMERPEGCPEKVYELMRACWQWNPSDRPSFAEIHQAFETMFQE

Compound | pIC50 (c-Abl kinase) | pIC50 [1, 2] | pIC50 [1]
COc1cccc(Nc2[nH]nc3c2Cc2cc4c(cc2-3)OCO4)c1 [Compound 97, (2,9-Dihydro-5,7-dioxa-2,3-diaza-cyclopenta[a]-s-indacen-1-yl)-(3-methoxy-phenyl)-amine] | 6.64 | 7.72 | –
COc1cc2c(cc1OC)-c1n[nH]c(Nc3cccc(F)c3)c1C2 [Compound 14, (3-Fluoro-phenyl)-(6,7-dimethoxy-2,4-dihydro-indeno[1,2-c]pyrazol-3-yl)-amine] | – | – | 8.52
CN1CCN(c2ccc3c(c2)Cc2c-3n[nH]c2Nc2cccc(Br)c2)CC1 [Compound 122, (3-Bromo-phenyl)-[6-(4-methyl-piperazin-1-yl)-2,4-dihydro-indeno[1,2-c]pyrazol-3-yl]-amine] | 5.90 | 6.90 | –
COc1ccc2c(c1)-c1n[nH]c(Nc3ccccc3)c1C2 [Compound 39, (7-Methoxy-2,4-dihydro-indeno[1,2-c]pyrazol-3-yl)-phenyl-amine] | 7.89 | 8.05 | –
COc1cc2c(cc1OC)-c1n[nH]c(NCc3ccccc3)c1C2 [Compound 63, Benzyl-(6,7-dimethoxy-2,4-dihydro-indeno[1,2-c]pyrazol-3-yl)-amine] | 6.38 | 7.85 | –
COc1cc2c(cc1OC)-c1n[nH]c(NCc3cc(Cl)ccc3Cl)c1C2 [Compound 330, (2,5-Dichloro-benzyl)-(6,7-dimethoxy-2,4-dihydro-indeno[1,2-c]pyrazol-3-yl)-amine] | 7.04 | – | –
COc1cc2c(cc1OC)-c1n[nH]c(Nc3ccccc3F)c1C2 [Compound 12, (6,7-Dimethoxy-2,4-dihydro-indeno[1,2-c]pyrazol-3-yl)-(2-fluoro-phenyl)-amine] | 7.70 | 6.97 | –
COC(=O)c1cccc(Nc2[nH]nc3c2Cc2cc(OC)c(OC)cc2-3)c1 [Compound 11, 3-(6,7-Dimethoxy-2,4-dihydro-indeno[1,2-c]pyrazol-3-ylamino)-benzoic acid methyl ester] | 6.93 | 7.85 | –
COC(=O)c1cccc(Nc2[nH]nc3c2Cc2cc(OCCCN4CCCC4)c(OC)cc2-3)c1 [Compound 157, 3-[7-Methoxy-6-(3-pyrrolidin-1-yl-propoxy)-2,4-dihydro-indeno[1,2-c]pyrazol-3-ylamino]-benzoic acid methyl ester] | 6.43 | 8.10 | –
Cc1ccc2c(c1)-c1n[nH]c(Nc3ccccc3)c1C2 [Compound 22, (7-Methyl-2,4-dihydro-indeno[1,2-c]pyrazol-3-yl)-phenyl-amine] | 7.72 | 6.56 | –
COc1cc2c(cc1OC)-c1c(c(Nc3cccc(F)c3)nn1C(=O)CO)C2 [Compound 432, 1-[3-(3-Fluoro-phenylamino)-6,7-dimethoxy-4H-indeno[1,2-c]pyrazol-1-yl]-2-hydroxy-ethanone] | 7.02 | – | –
COc1cc2c(cc1OC)-c1n[nH]c(Nc3cccnc3)c1C2 [Compound 30, (6,7-Dimethoxy-2,4-dihydro-indeno[1,2-c]pyrazol-3-yl)-pyridin-3-yl-amine] | 6.31 | 8.70 | –

Reference: patent US7196110B2, “N-substituted tricyclic 3-aminopyrazoles as inhibitors for the treatment of cell proliferative disorders” (Janssen Phamaceutica N.V., priority 2002, dated 2007)
